From patent US20070167462A1, “Fungicidal mixtures” (priority 2004, published 2007)

System: Corticium sasakii
Assay: Activity against sheath blight on rice caused by Corticium sasakii (protective spray, rice plants cultivar Tai-Nong 67)
Assay type: in vivo
Conditions: untreated control 90% infection
Protocol: The active compounds, separately or jointly, were prepared as a stock solution comprising 0.25% by weight of active compound in acetone or DMSO. 1% by weight of the emulsifier Uniperol® EL (wetting agent having emulsifying and dispersing action based on ethoxylated alkylphenols) was added to this solution, and the mixture was diluted with water accordingly to the desired concentration.
Use example—Activity against sheath blight on rice caused by Corticium sasakii
Pots of rice plants of the cultivar “Tai-Nong 67” were sprayed to runoff point with an aqueous suspension having the concentration of active compound stated below. The next day, oat grains infected with Corticium sasakii were planted in the pots (in each case 5 grains per pot). The plants were then placed in a chamber at 26° C. and maximum atmospheric humidity. After […], the sheath blight on the untreated but infected control plants had developed to such an extent that the infection could be determined visually in %.
Evaluation is carried out by determining the infected leaf areas in percent. These percentages were converted into efficacies.
The efficacy (E) is calculated as follows using Abbot's formula: E=(1−αβ)·100 • α corresponds to the fungal infection of the treated plants in % and • β corresponds to the fungal infection of the untreated (control) plants in %
An efficacy of 0 means that the infection level of the treated plants corresponds to that of the untreated control plants; an efficacy of 100 means that the treated plants are not infected.
The expected efficacies of the mixtures of active compounds are determined using Colby's formula [R. S. Colby, Weeds, 15, 20-22 (1967)] and are compared with the observed efficacies.
Colby's formula: E=x+y−x·y/100 • E expected efficacy, expressed in % of the untreated control, when using the mixture of the active compounds A and B at the concentrations a and b • x efficacy, expressed in % of the untreated control, when using the active compound A at the concentration a
y efficacy, expressed in % of the untreated control, when using the active compound B at the concentration b

[1] = 4 ppm active compound in the spray liquor
[2] = 16 ppm active compound in the spray liquor

| Compound | Efficacy in % of the untreated control [1] | Efficacy in % of the untreated control [2] |
| --- | --- | --- |
| CC1CCN(c2c(-c3c(F)cc(F)cc3F)c(Cl)nc3ncnn23)CC1 [compound I, 5-chloro-7-(4-methylpiperidin-1-yl)-6-(2,4,6-trifluorophenyl)-[1,2,4]tri-azolo[1,5-a]pyrimidine] | 31% | 65% |
| CC(C)Oc1cccc(NC(=O)c2ccccc2C(F)(F)F)c1 [II (flutolanil), N-(3-isopropoxyphenyl)-2-trifluoromethylbenzamide] | 0% | 31% |
